Numbers after ± are expanded uncertainties.

This is an account of results in the NIST ThermoML archive (doi:10.1016/j.jct.2009.11.013).

Data set [1] is described as follows: molar enthalpy of vaporization or sublimation. The conditions noted are these: 298.15 K; Liquid; Calvet microcalorimetry.
The conditions of data set [2]: Liquid; Calvet microcalorimetry.

With `O=C1C=CCS1` [2(5H)-thiophenone], the molar enthalpy in data set [1] turned out to be 56 ± 2.4 kJ/mol. In data set [2], the Normal boiling temperature was determined as 103 ± 0.2 °C.

With `O=C1C=CCO1` [(5H)-furan-2-one], the molar enthalpy in data set [1] was 55.6 ± 2.6 kJ/mol.
